Assay results reported in US9403814B2, “Crystalline forms of dihydropyrimidine derivatives” (SUNSHINE LAKE PHARMA CO., LTD., priority 2012, dated 2016).
Counter-ions that a name gives are not always drawn.

Columns and labels:
[1] = Stability test: impurity content by HPLC under storage conditions; assay type: physicochemical; settings: for stability under the experimental conditions (conclusion from Tables 2 and 3): high temperature, accelerated, mediated, high humidity and illumination conditions, up to 30 days
Procedure: A crystalline form sample was put in a watch glass in the form of a thin layer of ≦5 mm. The stability test was conducted under different conditions: high temperature (60±2° C.) for 30 days, accelerated condition (40±2° C., 75%±5% humidity) for 30 days, mediated condition (30±2° C., 65%±5% humidity) for 30 days, high humidity (25±2° C., 90%±5%) for 10 days and illumination condition (visible light 4500 lx±500 lx with ultraviolet light not lower than 0.7 W·h/m^2, 25±2° C., 60%±5% relative humidity) for 10 days respectively. The impurity contents of crystalline forms B and C were determined at various time points (0, 10, 20, and 30 days) by high performance liquid chromatography (HPLC) with peak area normalization.

[2] = Solubility test: dissolution of crystalline form sample in water; assay type: physicochemical; settings: 25±5° C.; for dissolubility of samples (300 mg/mL): about 600 mg sample in water (2 mL), ultrasonic vibration, visual check for solute particles; for solubility in water (conclusion from Table 1): 300 mg/mL
Procedure: About 600 mg of a crystalline form sample was added to water (2 mL). The dissolution of the sample was obtained with ultrasonic vibration at 25±5° C. No visible solute particles mean that the sample has a complete dissolution in water; whereas visible solute particles mean that the sample precipitates in water.

[3] = accelerated condition (40±2° C., 75%±5% humidity), 0 day
[4] = accelerated condition (40±2° C., 75%±5% humidity), 10 days
[5] = accelerated condition (40±2° C., 75%±5% humidity), 20 days
[6] = accelerated condition (40±2° C., 75%±5% humidity), 30 days
[7] = high humidity (25±2° C., 90%±5%), 0 day
[8] = high humidity (25±2° C., 90%±5%), 10 days
[9] = high temperature (60±2° C.), 0 day
[10] = high temperature (60±2° C.), 10 days
[11] = high temperature (60±2° C.), 20 days
[12] = high temperature (60±2° C.), 30 days
[13] = illumination condition (visible light 4500 lx±500 lx with UV, 25±2° C., 60%±5% relative humidity), 0 day
[14] = illumination condition (visible light 4500 lx±500 lx with UV, 25±2° C., 60%±5% relative humidity), 10 days
[15] = mediated condition (30±2° C., 65%±5% humidity), 0 day
[16] = mediated condition (30±2° C., 65%±5% humidity), 10 days
[17] = mediated condition (30±2° C., 65%±5% humidity), 20 days
[18] = mediated condition (30±2° C., 65%±5% humidity), 30 days

CCOC(=O)C1=C(CN2CCOCC2)NC(c2nccs2)=NC1c1ccc(F)cc1Br (single isomer, unassigned) [form B, 6[R,S]-ethyl 6-(2-bromo-4-fluorophenyl)-4-(morpholinomethyl)-2-(thiazol-2-yl)-1,6-dihydro pyrimidine-5-carboxylate mesylate]
impurity content by HPLC [1, 3]: 0.06% | impurity content by HPLC [1, 4]: 0.09% | impurity content by HPLC [1, 5]: 0.08% | impurity content by HPLC [1, 6]: 0.10% | impurity content by HPLC [1, 7]: 0.06% | impurity content by HPLC [1, 8]: 0.06% | impurity content by HPLC [1, 9]: 0.06% | impurity content by HPLC [1, 10]: 0.13% | impurity content by HPLC [1, 11]: 0.20% | impurity content by HPLC [1, 12]: 0.24% | stability under the experimental conditions (conclusion from Tables 2 and 3) [1]: did not degrade or change | impurity content by HPLC [1, 13]: 0.06% | impurity content by HPLC [1, 14]: 0.12% | impurity content by HPLC [1, 15]: 0.06% | impurity content by HPLC [1, 16]: 0.10% | impurity content by HPLC [1, 17]: 0.13% | impurity content by HPLC [1, 18]: 0.12% | dissolubility of samples (300 mg/mL) [2]: completely dissolved, some sample precipitated | solubility in water (conclusion from Table 1) [2]: good solubility in water

CCOC(=O)C1=C(CN2CCOCC2)NC(c2nccs2)=NC1c1ccc(F)cc1Br (single isomer, unassigned) [form C, 6[R,S]-ethyl 6-(2-bromo-4-fluorophenyl)-4-(morpholinomethyl)-2-(thiazol-2-yl)-1,6-dihydro pyrimidine-5-carboxylate mesylate]
impurity content by HPLC [1, 3]: 0.03% | impurity content by HPLC [1, 4]: 0.04% | impurity content by HPLC [1, 5]: 0.04% | impurity content by HPLC [1, 6]: 0.04% | impurity content by HPLC [1, 7]: 0.03% | impurity content by HPLC [1, 8]: 0.04% | impurity content by HPLC [1, 9]: 0.03% | impurity content by HPLC [1, 10]: 0.06% | impurity content by HPLC [1, 11]: 0.03% | impurity content by HPLC [1, 12]: 0.03% | stability under the experimental conditions (conclusion from Tables 2 and 3) [1]: did not degrade or change | impurity content by HPLC [1, 13]: 0.03% | impurity content by HPLC [1, 14]: 0.03% | impurity content by HPLC [1, 15]: 0.03% | impurity content by HPLC [1, 16]: 0.03% | impurity content by HPLC [1, 17]: 0.03% | impurity content by HPLC [1, 18]: 0.03% | dissolubility of samples (300 mg/mL) [2]: completely dissolved, no sample precipitated | solubility in water (conclusion from Table 1) [2]: good solubility in water
